From patent US20120244568A1, “LABEL-FREE RIGID CELL ASSAY METHOD” (priority 2011, published 2012) come the findings set out here.

Each structure is given as a SMILES string. Like-named read-outs stand apart in the source and are kept apart here.

Holding throughout (assay type): cell-based
In assay [1] the test system is Saccharomyces cerevisiae S288C yeast cells. Put plainly: label-free DRCA multi-wavelength SPR yeast cell assay (response to a substance). The following applies: 10 micromolar; for effect on yeast cell growth: 4,000 cells per well, pre-incubated 60 minutes; for effect on yeast cell growth / effect on yeast cell growth measured at short penetration depth: FIG. 4; for effect on yeast cell growth compared with the other modulators: consistent at three different penetration depths, versus fluconazole and ketaconazole; for effect on yeast cell growth measured at short penetration depth: 660 nm laser source. How it is done: Yeast cells were cultured on an YPD agar plate at 28° C. for 16 hours and kept at 4° C. until just prior to use. From the agar plate, yeast cells were collected and seeded into YPD liquid medium and cultured at 28° C. for 8 hours. The cells were then diluted with its liquid medium to obtain a cell density of about 4,000 cells/mL as a starting point for cell inhibition studies. For the detection of yeast cells, the cells were collected at the late logarithm phase and collected by centrifugation at 10,000 g for 10 minutes. Cells were further washed to remove debris and/or high index material such as glucose.
A DRCA™ system equipped with three lasers having wavelengths of, for example, 660 nm, 980 nm, and 1480 nm, was selected for the study. The system allows for simultaneously measuring a cell at three different wavelengths. The output measures the angular change of the surface plasmon resonance (SPR). The angular change indicates a mass change within the defined sensing region. The depth of the sensing region depends on the wavelength of the selected illuminating laser as listed, for example, in Table 1.
A user-assembled assay plate was first assembled with a gold coated glass slide and an 80-well holey plate (cut from a 384-well holey plate). Yeast cells were seeded into the wells with or without a compound and incubated in the instrument for approximately 60 minutes at 22° C. The cell responses were then measured and data were collected according to the description in the aforementioned U.S. Ser. No. 12/956,464.
A procedure for accomplishing a label-free rigid cell assay response to a substance in accord with the present disclosure can include, for example: • 1. clean and assemble an 80-well holey plate on top of a gold chip; • 2. sterile the assembled chip by exposure to high intensity UV light for around 5 minutes; • 3. grow yeast cells until the middle or late logarithm stage, preferably the former for an active inoculum; • 4. turn on the DRCA optical system to warm-up the lasers for, e.g., 1 hour; • 5. collect yeast cell by centrifugation at, e.g., 10,000 g for 10 minutes; • 6. wash the cells with at least 5× fold volume of the pellet using a saline buffer, such as phosphate saline buffer; • 7. vortex the cell solution using, for example, a bench top vortex mixer; • 8. collect yeast cells by centrifugation at e.g. 10,000 g for 10 minutes; • 9. repeat steps 6 to 8 for approximately three (3) times to remove high refractive index materials, such as, sugar residues, cell debris, or like materials, and mixtures thereof; • 10. count yeast cell number using, e.g., a hemocytometer • 11. prepare assay buffer with or without a substance (compound/bio-molecule); • 12. load assay buffer with or without a substance (compound/bio-molecule) to each well of the cell chamber and let it equilibrate for, e.g., 60 minutes; • 13. record the baselines for, e.g., 15 minutes; • 14. add a small amount of yeast cells, such as 4000 cells/mL to each well; • 15. monitor the yeast cell response, for example, to an added substance, with a plurality of wavelengths and depths; • 16. record the data; and • 17. analyze the data by calculating the difference between the end points and baselines.
Four modulator compounds were used to study of their effect on yeast cells. A user assembled (i.e., a virtual) assay plate was seeded with 4,000 cells per well. A modulator was added to a test well at 10 micromolar and then pre-incubated for 60 minutes. Each modulator was tested in three replicates. The well without a modulator was a positive control. […] However, the difference between the modulators and controls was more substantial when measured at the longest penetration depth using the 1480 nm laser source. […] Accordingly, the disclosed method can be useful for drug screening, drug development, and like applications.
Time course of a modulator effect. The effect of an amphotericin compound on yeast cells was monitored in real time under ambient condition. […]

Assay [2] has the same test system. As to the kind of experiment: turbidometric determination with a visible light spectrophotometer (absorbance OD580) of DRCA assay samples. The following applies: 10 micromolar, FIG. 7. The text has this:
FIG. 7 charts absorbance readings of a conventional turbidometric determination using a visible light spectrophotometer, for cultured yeast cells without amphotericin (left; amphotericin at 0 micromolar) and contacted with amphotericin (right; amphotericin at 10 micromolar). Turbidity can be used as an indirect measure of cell growth. Using a standard curve generated with serial dilutions of known number cells, one can estimate cell density in a turbid cell culture.
(§1) The samples from the aforementioned DRCA assay were further analyzed with a spectrophotometer (Agilent Technologies, Wilmington, Del.) and hemocytometer (Thermo Fisher Scientific, Hudson, N.H.). […] With amphotericin treatment, the cell number was about zero, compared to about 12,000,000 cells in the untreated sample, see FIG. 8 (yeast cell count by hemocytometer) for amphotericin (80) and no amphotericin (82) at each of three wavelengths.

Assay [3] shares this test system. As to the kind of experiment: yeast cell count by hemocytometer of DRCA assay samples. To be noted: with amphotericin treatment; FIG. 8; untreated sample about 12,000,000 cells.
Source text: as §1

For assay [4] the test system is unchanged. Put plainly: label-free DRCA multi-wavelength SPR yeast cell assay (response to a substance).

In the case of `C[C@@H]1[C@H](O)[C@@H](C)/C=C/C=C/C=C/C=C/C=C/C=C/C=C/[C@H](O[C@@H]2O[C@H](C)[C@@H](O)[C@H](N)[C@@H]2O)C[C@@H]2O[C@](O)(C[C@@H](O)C[C@@H](O)[C@H](O)CC[C@@H](O)C[C@@H](O)CC(=O)O[C@H]1C)C[C@H](O)[C@H]2C(=O)O` [amphotericin, Amphotericin], the “effect on yeast cell growth” value in assay [1] is listed as “had an effect on yeast cell growth”. The “change in response over time (time course)” value in assay [1] (about 16 hours, any given penetration depth (660, 980, 1480 nm), FIG. 5) is listed as “almost no change in response”. Further, in assay [1], the “effect on yeast cell growth compared with the other modulators” value is “more noticeable effect”. In assay [2], the “cell growth by turbidity” value was “cell growth was inhibited”. Moreover, the OD580 absorbance reading entry in assay [2] (untreated sample about 12) is recorded as “about zero”. For the same molecule, in assay [3], the cell number result is on record as “about zero”. Also, the IC50 in assay [4] (read-out: IC50 (inhibition curve, yeast cells), 660 nm wavelength, about 4000 cells/well, 3,000 nM serially diluted at 3 fold, R^2=0.9072) was 374 nM; in assay [4] (read-out: IC50 (inhibition curve, yeast cells), 980 nm wavelength, about 4000 cells/well, 3,000 nM serially diluted at 3 fold, R^2=0.9486), 271 nM; in assay [4] (read-out: IC50 (inhibition curve, yeast cells), 1480 nm wavelength, about 4000 cells/well, 3,000 nM serially diluted at 3 fold, R^2=0.9817), 158 nM.

For the molecule `Clc1ccccc1C(c1ccccc1)(c1ccccc1)n1ccnc1` [clotrimazole], in assay [1], the “effect on yeast cell growth” value is recorded as “had an effect on yeast cell growth” and the “effect on yeast cell growth compared with the other modulators” value is recorded as “more noticeable effect”.

For the molecule `OC(Cn1cncn1)(Cn1cncn1)c1ccc(F)cc1F` [fluconazole], in assay [1], the “effect on yeast cell growth measured at short penetration depth” value is “not detectable” and the “effect on yeast cell growth” value is recorded as “had an effect on yeast cell growth”.

As for `CC(=O)N1CCN(c2ccc(OCC3COC(Cn4ccnc4)(c4ccc(Cl)cc4Cl)O3)cc2)CC1` (stereo not drawn) [ketaconazole], in assay [1], the “effect on yeast cell growth measured at short penetration depth” value was “not detectable” and the “effect on yeast cell growth” value is given as “had an effect on yeast cell growth”.
